SMILES strings stand for the structures.

Chain of ACL (P53396 other isoform, or with tags, fused parts or gaps isoform P53396-2): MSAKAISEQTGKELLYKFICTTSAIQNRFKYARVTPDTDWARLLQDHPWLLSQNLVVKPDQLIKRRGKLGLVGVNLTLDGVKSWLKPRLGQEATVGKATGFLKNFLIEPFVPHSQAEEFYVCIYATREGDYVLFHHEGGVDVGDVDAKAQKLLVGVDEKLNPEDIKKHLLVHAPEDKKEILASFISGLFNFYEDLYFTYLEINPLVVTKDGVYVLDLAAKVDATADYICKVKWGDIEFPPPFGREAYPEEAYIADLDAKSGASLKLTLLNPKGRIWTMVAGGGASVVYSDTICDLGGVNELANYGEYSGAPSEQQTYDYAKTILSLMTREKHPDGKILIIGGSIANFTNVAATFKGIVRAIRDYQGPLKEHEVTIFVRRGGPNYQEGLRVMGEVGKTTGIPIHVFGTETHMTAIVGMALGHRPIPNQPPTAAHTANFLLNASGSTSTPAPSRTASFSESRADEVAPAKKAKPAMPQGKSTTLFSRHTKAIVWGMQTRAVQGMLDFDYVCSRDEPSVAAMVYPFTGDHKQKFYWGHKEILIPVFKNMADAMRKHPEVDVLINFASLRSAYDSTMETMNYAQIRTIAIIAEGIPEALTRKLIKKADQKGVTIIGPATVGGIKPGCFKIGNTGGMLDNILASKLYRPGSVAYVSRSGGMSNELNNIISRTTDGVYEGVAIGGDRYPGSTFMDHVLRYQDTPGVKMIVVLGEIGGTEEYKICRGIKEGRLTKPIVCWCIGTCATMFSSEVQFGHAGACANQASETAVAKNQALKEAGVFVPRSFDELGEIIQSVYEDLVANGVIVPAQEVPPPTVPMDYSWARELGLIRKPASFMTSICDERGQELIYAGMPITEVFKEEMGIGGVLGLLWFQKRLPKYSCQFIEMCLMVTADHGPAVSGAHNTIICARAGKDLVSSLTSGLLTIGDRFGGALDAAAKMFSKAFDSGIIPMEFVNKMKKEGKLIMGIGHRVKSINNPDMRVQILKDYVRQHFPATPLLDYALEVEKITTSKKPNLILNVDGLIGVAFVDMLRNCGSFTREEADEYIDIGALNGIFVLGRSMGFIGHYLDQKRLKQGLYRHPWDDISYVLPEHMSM

The test addresses ACL (Homo sapiens (Human), UniProt P53396). The test can be described thus: ADP-Glo Assay.
The molecule `Cn1ncc(-c2ccccc2)c1NS(=O)(=O)c1cc(Cl)cc(Cl)c1O` [I-109, 3,5-dichloro-2-hydroxy-N-(1-methyl-4-phenyl-1H-pyrazol-5-yl)benzenesulfonamide] came in with a half-maximal inhibitory concentration (IC50) of 0.5 to 20 µM. The figure for `COC(=O)c1cc(Cl)c(OCC(=O)O)c(S(=O)(=O)Nc2cc(-c3ccccc3)ccc2F)c1` [I-114, 2-[2-chloro-6-([4-fluoro-[1,1-biphenyl]-3-yl]sulfamoyl)-4-(methoxycarbonyl)phenoxy]acetic Acid] is 0.5 to 20 µM; for `CCC(=O)Oc1c(Cl)cc(C(=O)OC)cc1S(=O)(=O)Nc1cc(-c2ccccc2)ccc1F` [I-120, Methyl 3-chloro-5-([4-fluoro-[1,1-biphenyl]-3-yl]sulfamoyl)-4-(propanoyloxy)benzoate] it is 0.05 to 0.5 µM. The figure for `CCC(=O)Oc1ccccc1S(=O)(=O)Nc1cc(-c2ccccc2)ccc1F` [I-121, 2-[(2-fluoro-5-phenylphenyl)sulfamoyl]phenyl Propanoate] is 0.5 to 20 µM; for `O=S(=O)(Nc1cc(-c2ccccc2)ccc1F)c1cc(Cl)cc(Cl)c1OC1COC1` [I-122, 3,5-dichloro-N-(4-fluoro-[1,1′-biphenyl]-3-yl)-2-(oxetan-3-yloxy)benzenesulfonamide] it is 0.5 to 20 µM. The result for `O=S(=O)(NCc1cc(-c2ccccc2)ccc1F)c1cc(Cl)cc(Cl)c1O` [I-125, 3,5-dichloro-N-((4-fluoro-[1,1′-biphenyl]-3-yl)methyl)-2-hydroxybenzenesulfonamide] reads 0.5 to 20 µM; that for `Cc1c(C(=O)O)cc(Cl)c(O)c1S(=O)(=O)Nc1cc(-c2ccccc2)c(F)cc1F` [I-132, 5-chloro-3-([4,6-difluoro-[1,1-biphenyl]-3-yl]sulfamoyl)-4-hydroxy-2-methylbenzoic Acid], 0.5 to 20 µM; that for `O=C(O)c1cc(Cl)cc(S(=O)(=O)Nc2cc(-c3ccccc3)c(F)cc2F)c1` [I-147, 3-chloro-5-(N-(4,6-difluoro-[1,1′-biphenyl]-3-yl)sulfamoyl)benzoic Acid], 0.5 to 20 µM. `O=C(Nc1cc(-c2ccccc2)c(F)cc1F)c1cc(C(=O)N2CCCC2)cc(Cl)c1O` [I-150, 3-chloro-N-(4,6-difluoro-[1,1′-biphenyl]-3-yl)-2-hydroxy-5-(pyrrolidine-1-carbonyl)benzamide] came in with an IC50 of 0.5 to 20 µM. The result for `NC(=O)COc1c(Cl)cc(Cl)cc1S(=O)(=O)Nc1cc(-c2ccccc2)ccc1F` [I-151, 2-(2,4-dichloro-6-(N-(4-fluoro-[1,1′-biphenyl]-3-yl)sulfamoyl)phenoxy)acetamide] reads 0.5 to 20 µM; that for `CNC(=O)COc1c(Cl)cc(Cl)cc1S(=O)(=O)Nc1cc(-c2ccccc2)ccc1F` [I-152, 2-(2,4-dichloro-6-(N-(4-fluoro-[1,1′-biphenyl]-3-yl)sulfamoyl)phenoxy)-N-methylacetamide], 0.5 to 20 µM; that for `O=C(COc1c(Cl)cc(Cl)cc1S(=O)(=O)Nc1cc(-c2ccccc2)ccc1F)N1CCC1` [I-153, 2-(2-(azetidin-1-yl)-2-oxoethoxy)-3,5-dichloro-N-(4-fluoro-[1,1′-biphenyl]-3-yl)benzenesulfonamide], 0.5 to 20 µM. The figure for `COc1c(Br)cc(C(=O)N2CCC2)cc1S(=O)(=O)Nc1cc(-c2ccccc2)ccc1F` [I-154, 5-(azetidine-1-carbonyl)-3-bromo-N-(4-fluoro-[1,1′-biphenyl]-3-yl)-2-methoxybenzenesulfonamide] is 0.5 to 20 µM; for `O=C(O)c1cc(Cl)c(O)c(C(=O)Nc2cc(-c3ccccc3)c(F)cc2F)c1` [I-155, 3-chloro-5-((4,6-difluoro-[1,1′-biphenyl]-3-yl)carbamoyl)-4-hydroxybenzoic Acid] it is 0.5 to 20 µM.

The molecule `O=S(=O)(Nc1cc(-c2ccccc2)c(F)cc1F)c1cc(Cl)ccc1F` [I-156, 5-chloro-N-(4,6-difluoro-[1,1′-biphenyl]-3-yl)-2-fluorobenzenesulfonamide] gave a half-inhibitory concentration (IC50) of 0.5 to 20 µM. The figure for `CC(=O)NCCNC(=O)c1cc(Cl)c(O)c(S(=O)(=O)Nc2cc(-c3ccccc3)c(F)cc2F)c1` [I-161, N-(2-[[3-chloro-5-([4,6-difluoro-[1,1-biphenyl]-3-yl]sulfamoyl)-4-hydroxyphenyl]formamido]ethyl)acetamide] is 0.5 to 20 µM. Molecule `CC(C)Oc1ccc(F)cc1NS(=O)(=O)c1cc(Cl)cc(Cl)c1O` [I-163] gave a 50% inhibitory concentration (IC50) of 0.5 to 20 µM. The figure for `O=S(=O)(Nc1cc(-n2nnnc2C2CC2)ccc1F)c1cc(Cl)cc(Cl)c1O` [I-164] is 0.5 to 20 µM; for `CC(C)Cc1csc(NS(=O)(=O)c2cc(Cl)cc(Cl)c2O)c1C(=O)N1CCOCC1` [I-165] it is 0.5 to 20 µM.

In turn, `COc1ccc(CN(C)S(=O)(=O)c2cc(Cl)cc(Cl)c2O)cc1` [I-166] displayed a half-maximal inhibitory concentration (IC50) of 0.5 to 20 µM.

In turn, `O=S(=O)(N[C@H]1C[C@H](c2ccc(F)cc2)C1)c1cc(Cl)cc(Cl)c1O` [I-167] gave a half-inhibitory concentration (IC50) of 0.5 to 20 µM. The result for `O=S(=O)(NCc1nc(-c2cccc(F)c2)no1)c1cc(Cl)cc(Cl)c1O` [I-168] reads 0.5 to 20 µM. The figure for `CC(C)n1ncc2cc(NS(=O)(=O)c3cc(Cl)cc(Cl)c3O)ccc21` [I-169] is 0.5 to 20 µM; for `O=S(=O)(Nc1cnn(-c2ccccc2)c1)c1cc(Cl)cc(Cl)c1O` [I-170] it is 0.5 to 20 µM. Turning to `O=S(=O)(Nc1ccc(OCc2ccccc2)cc1)c1cc(Cl)cc(Cl)c1O` [I-171], the IC50 lay in the range of 0.5 to 20 µM. The result for `CC(C)(C)Cc1nc2cc(NS(=O)(=O)c3cc(Cl)cc(Cl)c3O)ccc2o1` [I-172] reads 0.5 to 20 µM. The figure for `CC(C)(CNS(=O)(=O)c1cc(Cl)cc(Cl)c1O)c1cccs1` [I-173] is 0.5 to 20 µM; for `NC(=O)c1sc2ccccc2c1NS(=O)(=O)c1cc(Cl)cc(Cl)c1O` [I-174] it is 0.5 to 20 µM; for `CC(=O)N1CCCN(c2ccc(F)cc2NS(=O)(=O)c2cc(Cl)cc(Cl)c2O)CC1` [I-175] it is 0.5 to 20 µM. The molecule `O=S(=O)(NC1CCN(c2nc3ccccc3s2)CC1)c1cc(Cl)cc(Cl)c1O` [I-176] had an IC50 of 0.5 to 20 µM. The result for `O=S(=O)(Nc1cccc(-n2nccn2)c1)c1cc(Cl)cc(Cl)c1O` [I-177] reads 0.5 to 20 µM. The figure for `CC(C)NC(=O)c1ccc(NS(=O)(=O)c2cc(Cl)cc(Cl)c2O)cc1` [I-178] is 0.5 to 20 µM. The figure for `CN(C)C(=O)C(NS(=O)(=O)c1cc(Cl)cc(Cl)c1O)c1ccccc1` (centres unmarked) [I-179] is 0.5 to 20 µM. In turn, `O=S(=O)(NC1(c2ccc(F)cc2)CC1)c1cc(Cl)cc(Cl)c1O` [I-180] showed a half-inhibitory concentration (IC50) of 0.5 to 20 µM.

With `Cc1c(CNS(=O)(=O)c2cc(Cl)cc(Cl)c2O)n(C)c2ccccc12` [I-181], the 50% inhibitory concentration (IC50) lay in the range of 0.5 to 20 µM.

In the case of `O=S(=O)(Nc1cc(F)cc(N2CCOCC2)c1)c1cc(Cl)cc(Cl)c1O` [I-182], the IC50 fell in the range of 0.5 to 20 µM. The figure for `O=S(=O)(NC1CCN(c2ccccc2)C1)c1cc(Cl)cc(Cl)c1O` (centres unmarked) [I-183] is 0.5 to 20 µM; for `CC(NS(=O)(=O)c1cc(Cl)cc(Cl)c1O)c1ccc2c(c1)NC(=O)CO2` (centres unmarked) [I-184] it is 0.5 to 20 µM. The figure for `O=S(=O)(NCC1COc2ccccc2C1)c1cc(Cl)cc(Cl)c1O` (centres unmarked) [I-185] is 0.5 to 20 µM; for `O=S(=O)(Nc1cccc2cccc(F)c12)c1cc(Cl)cc(Cl)c1O` [I-186] it is 0.5 to 20 µM. The figure for `O=S(=O)(NCC1(Cc2ccc(F)cc2)CC1)c1cc(Cl)cc(Cl)c1O` [I-187] is 0.5 to 20 µM; for `COc1cccc(CCNS(=O)(=O)c2cc(Cl)cc(Cl)c2O)c1` [I-188] it is 0.5 to 20 µM. For `O=S(=O)(Nc1cnc(-c2ccccc2)s1)c1cc(Cl)cc(Cl)c1O` [I-189], the IC50 fell in the range of 0.5 to 20 µM. In turn, `O=S(=O)(Nc1cc(-c2ccccc2)c(F)cc1F)c1cccc(Cl)c1Cl` [I-190, 2,3-dichloro-N-[4,6-difluoro-[1,1-biphenyl]-3-yl]benzene-1-sulfonamide] showed an IC50 of 0.5 to 20 µM. The result for `COC(=O)c1cccc(S(=O)(=O)Nc2cc(-c3ccccc3)c(F)cc2F)c1` [I-191, methyl 3-([4,6-difluoro-[1,1-biphenyl]-3-yl]sulfamoyl)benzoate] reads 0.5 to 20 µM. The result for `O=S(=O)(Nc1cc(-c2ccccc2)c(F)cc1F)c1cccc(Cl)c1F` [I-195, 3-chloro-N-(4,6-difluoro-[1,1′-biphenyl]-3-yl)-2-fluorobenzenesulfonamide] reads 0.5 to 20 µM; that for `N#Cc1cc(S(=O)(=O)Nc2cc(-c3ccccc3)c(F)cc2F)ccc1Cl` [I-196, 4-chloro-3-cyano-N-(4,6-difluoro-[1,1′-biphenyl]-3-yl) benzenesulfonamide], 0.5 to 20 µM; that for `O=C(O)COc1c(Cl)cc(C(=O)N2CCC2)cc1S(=O)(=O)Nc1cc(-c2ccccc2)c(F)cc1F` [I-199, 2-[4-(azetidine-1-carbonyl)-2-chloro-6-([4,6-difluoro-[1,1-biphenyl]-3-yl]sulfamoyl)phenoxy]acetic Acid], 0.5 to 20 µM. The figure for `O=S(=O)(Nc1cc(-c2ccccc2)c(F)cc1F)c1cc(Cl)cc(C(F)(F)F)c1` [I-204, 3-chloro-N-[4,6-difluoro-[1,1-biphenyl]-3-yl]-5-(trifluoromethyl)benzene-1-sulfonamide] is 0.5 to 20 µM; for `O=C(c1cc(Cl)c(O)c(SCc2cc(-c3ccccc3)c(F)cc2F)c1)N1CCCC1` [I-205, (3-chloro-5-(((4,6-difluoro-[1,1′-biphenyl]-3-yl)methyl)thio)-4-hydroxyphenyl)(pyrrolidin-1-yl)methanone] it is 0.5 to 20 µM. Take `O=S(=O)(Nc1cc(-c2ccccc2)ccc1F)c1cc(Cl)cc(Cl)c1F` [I-207, 3,5-dichloro-2-fluoro-N-[4-fluoro-[1,1-biphenyl]-3-yl]benzene-1-sulfonamide]: the half-inhibitory concentration (IC50) is 0.5 to 20 µM.

On to `CN(C)C(=O)Oc1c(Cl)cc(C(=O)N2CCC2)cc1S(=O)(=O)Nc1cc(-c2ccccc2)c(F)cc1F` [I-209, 4-(azetidine-1-carbonyl)-2-chloro-6-([4,6-difluoro-[1,1-biphenyl]-3-yl]sulfamoyl)phenyl N,N-dimethylcarbamate], for which the half-maximal inhibitory concentration (IC50) lay in the range of 0.5 to 20 µM. The molecule `CC(C)(C)C(=O)Oc1c(Cl)cc(C(=O)N2CCC2)cc1S(=O)(=O)Nc1cc(-c2ccccc2)c(F)cc1F` [I-210, 4-(azetidine-1-carbonyl)-2-chloro-6-(N-(4,6-difluoro-[1,1′-biphenyl]-3-yl)sulfamoyl)phenyl Pivalate] showed an IC50 of 0.5 to 20 µM.

Broadly, the IC50 is the concentration that gives 50% inhibition. A high value points to lower potency.

The values are drawn from patent US11555012B2 (Nimbus Artemis, Inc., priority 2018, dated 2023).
